The record followed here is patent US5969132.

For the data set the following is noted: amide bond, NaHCO3, CH2Cl2, 72.0 h, 2 steps.

Read-outs that look alike come from different tables or passages of the source.

On to `CC(C)[C@@H]1NC(=O)CNC(=O)COc2ccc(cc2)C[C@@H](C(O)C(F)(F)C(=O)NCc2ccccc2)NC1=O` (some centres unmarked), for which the ring closure, yield of all isomers (from CC(C)[C@H](NC(=O)CNC(=O)OC(C)(C)C)C(=O)N[C@@H](Cc1ccc(OCC(=O)Oc2c(F)c(F)c(F)c(F)c2F)cc1)C(O)C(F)(F)C(=O)NCc1ccccc1) amounted to 78.7%.

`CC(C)[C@H](COCc1ccccc1)NC(=O)C(F)(F)[C@H](O)[C@@H]1Cc2ccc(cc2)OCC(=O)NCC(=O)N[C@@H](C(C)C)C(=O)N1` showed a ring closure, yield of all isomers (from CC(C)[C@H](COCc1ccccc1)NC(=O)C(F)(F)C(O)[C@H](Cc1ccc(OCC(=O)Oc2c(F)c(F)c(F)c(F)c2F)cc1)NC(=O)[C@@H](NC(=O)CNC(=O)OC(C)(C)C)C(C)C, 1.69 mM) of 8%.
